According to US20240360154A1, “AROYL SUBSTITUTED TRICYCLIC COMPOUND, PREPARATION METHOD THEREFOR AND USE THEREOF” (GENFLEET THERAPEUTICS (SHANGHAI) INC., priority 2020, published 2024):

Tests used:
TMD-8 cells = test: TMD-8 proliferation inhibition experiment; type: cell-based; conditions: human diffuse large B lymphoma cells, three days incubation
Description: TMD-8 cells are human diffuse large B lymphoma (Mingzhou Bio, MZ-0832), cultured in 10% FBS+1% PS 1640 medium; OCI-LY10 is human diffuse large B lymphoma (BeNa Culture Collection, BNCC337742), cultured in 10% FBS+1% PS IMDM. Day 1: Cells at logarithmic growth phase were taken, counted and inoculated 600 TMD-8 or 2000 OCI-LY10 cells in a 384-well cell culture plate and cultured overnight. Day 2: A 3-fold gradient concentration stock solution of 400× compound was prepared with DMSO, and diluted 40-fold to a 10× compound stock solution with culture medium. The 10× compound stock solution was added to each cell culture well with a final concentration of 1× compound stock solution and a DMSO content of 0.25%. DMSO was used as experimental control, and culture medium was used as blank control. The incubation was continued for three days after compound addition. On the fifth day, 25 μL of […] was added to each well, mixed well and incubated for 10 minutes, then the chemiluminescence value (RLU value) was read. The cell proliferation inhibition rate (%)=(RLUcontrol−RLUcompound)/(RLUcontrol−RLUblank)×100% was calculated. The compound gradient dilution concentration and the corresponding cell proliferation inhibition rate were fit by using XLFit four-parameter method, and IC50 value was calculated.

BTK = BTK (Homo sapiens (Human), UniProt Q06187); test: BTK enzyme experiment (ADP-Glo kinase assay); type: biochemical; conditions: 10 nM BTK, ATP 125 μM, Poly(Glu4, Tyr1), 90 minutes at 20° C.; read-out: BTK(WT) IC50
Outline: (§1)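 Wild-type or C481S BTK, added as 2× solution at 10 nM, preincubated 10 min with 3-fold compound dilutions in 50 mM HEPES pH 7.5, 10 mM MgCl2, 2 mM DTT, 0.0015% Brij-35. ADP-Glo luminescence norm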

BTK (C481S) = BTK (C481S) (Homo sapiens (Human), UniProt Q06187, C481S); test: BTK C481S enzyme experiment (ADP-Glo kinase assay); type: biochemical; conditions: 10 nM BTK C481S, ATP 125 μM, Poly(Glu4, Tyr1), 90 minutes at 20° C.
Outline: as §1

Sequence of BTK (C481S) (Q06187 whole entry C481S): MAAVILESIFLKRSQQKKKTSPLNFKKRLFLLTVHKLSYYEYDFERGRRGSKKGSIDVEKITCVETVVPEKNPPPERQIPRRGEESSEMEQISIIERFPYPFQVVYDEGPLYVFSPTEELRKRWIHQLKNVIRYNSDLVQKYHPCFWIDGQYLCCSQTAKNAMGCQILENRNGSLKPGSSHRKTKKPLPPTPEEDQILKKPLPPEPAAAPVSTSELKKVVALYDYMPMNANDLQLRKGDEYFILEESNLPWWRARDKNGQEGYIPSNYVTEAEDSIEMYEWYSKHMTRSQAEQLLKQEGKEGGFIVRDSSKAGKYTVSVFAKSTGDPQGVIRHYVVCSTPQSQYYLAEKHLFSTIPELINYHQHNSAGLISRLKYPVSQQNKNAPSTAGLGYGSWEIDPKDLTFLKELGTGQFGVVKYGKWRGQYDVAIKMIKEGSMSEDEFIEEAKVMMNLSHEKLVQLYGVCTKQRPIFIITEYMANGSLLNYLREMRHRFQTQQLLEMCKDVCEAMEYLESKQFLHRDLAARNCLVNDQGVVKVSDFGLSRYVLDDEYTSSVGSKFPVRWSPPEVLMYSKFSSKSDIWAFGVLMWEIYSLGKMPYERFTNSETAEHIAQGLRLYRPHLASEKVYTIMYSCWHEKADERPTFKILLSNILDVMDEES
Sequence of BTK (Q06187 whole entry): as the sequence (Q06187 whole entry C481S) above, with S481C counted along it

Row | Structure (SMILES) | IC50 (BTK) [nM] | IC50 (BTK (C481S)) [nM] | IC50 (TMD-8 cells; Homo sapiens, TMD8, 72 h) [nM] | IC50 (TMD-8 cells) [nM]
1 | CN1CCC2(C1)Nc1c(cnc3[nH]cc(C(=O)c4ccc(Oc5ccccc5)cc4Cl)c13)N(C)C2=O (stereo not drawn) [Z8] | 73.6 | 27.9 | – | 469
2 | O=C(c1ccc(Oc2ccccc2)cc1Cl)c1c[nH]c2ncc3c(c12)N[C@@]1(CC[C@H](CO)OC1)C(=O)N3 (single isomer, unassigned) [Z41-2b] | 7.9 | 6.1 | – | 101
3 | COC1CCC2(C1)Nc1c(cnc3[nH]cc(C(=O)c4ccc(Oc5ccccc5)cc4Cl)c13)NC2=O (single isomer, unassigned) [Z25-3, 9′-(2-chloro-4-phenoxybenzoyl)-3-methoxy-4′,7′-dihydrospiro[cyclopentane-1,2′-pyrrolo[3′,2′:5,6]pyrido[3,4-b]pyrazin]-3′(1′H)-one] | 22.4 | 16.4 | – | 108
4 | CN1CCC2(C1)Nc1c(cnc3[nH]cc(C(=O)c4ccc(Oc5cc(C(F)(F)F)ccn5)cc4Cl)c13)NC2=O (stereo not drawn) [Z12] | 26.4 | 45.8 | – | 480
5 | CC(=O)N1CC[C@@]2(C1)Nc1c(cnc3[nH]cc(C(=O)c4ccc(Oc5ccccc5)cc4Cl)c13)NC2=O (single isomer, unassigned) [Z4-2] | 46.1 | 19.8 | – | 1200
6 | N#C[C@H]1CC[C@@]2(C1)Nc1c(cnc3[nH]cc(C(=O)c4ccc(Oc5ccccc5)cc4Cl)c13)NC2=O (single isomer, unassigned) [Z26-3] | 34 | 20.6 | – | 216
7 | COC1CCC2(C1)Nc1c(cnc3[nH]cc(C(=O)c4ccc(Oc5ccccc5)cc4Cl)c13)NC2=O (single isomer, unassigned) [Z25-3a, 9′-(2-chloro-4-phenoxybenzoyl)-3-methoxy-4′,7′-dihydrospiro[cyclopentane-1,2′-pyrrolo[3′,2′:5,6]pyrido[3,4-b]pyrazin]-3′(1′H)-one] | 15.4 | 7.6 | – | 102
8 | COCC1(C)Nc2c(cnc3[nH]cc(C(=O)c4ccc(Oc5ccccc5)cc4Cl)c23)N(C)C1=O (single isomer, unassigned) [Z52-1, 9-(2-chloro-4-phenoxybenzoyl)-2-(methoxymethyl)-2,4-dimethyl-1,2,4,7-tetrahydro-3H-pyrrolo[3′,2′:5,6]pyrido[3,4-b]pyrazin-3-one] | 23.8 | 24.2 | 201 | –
9 | O=C(c1ccc(Oc2ccccc2)cc1Cl)c1c[nH]c2ncc3c(c12)N[C@]1(CCOC1)C(=O)N3 (single isomer, unassigned) [Z1-2] | 64.7 | 27.2 | – | 232
10 | C[C@]1(CO)Nc2c(cnc3[nH]cc(C(=O)c4ccc(Oc5ccccc5)cc4Cl)c23)NC1=O (single isomer, unassigned) [Z9-1] | 20 | 20 | – | 389
11 | O=C(c1ccc(Oc2ccccc2)cc1Cl)c1c[nH]c2ncc3c(c12)N[C@@]1(CCOC1)C(=O)N3 (single isomer, unassigned) [Z1-1] | 67.1 | 23.6 | – | 183
12 | COC1CCC2(C1)Nc1c(cnc3[nH]cc(C(=O)c4ccc(Oc5ccccc5)cc4Cl)c13)NC2=O (single isomer, unassigned) [Z25-1, 9′-(2-chloro-4-phenoxybenzoyl)-3-methoxy-4′,7′-dihydrospiro[cyclopentane-1,2′-pyrrolo[3′,2′:5,6]pyrido[3,4-b]pyrazin]-3′(1′H)-one] | 32 | 19.8 | 101 | –
13 | O=C(c1ccc(Oc2ccccc2)cc1Cl)c1c[nH]c2ncc3c(c12)N[C@]1(CC[C@H](O)C1)C(=O)N3 (single isomer, unassigned) [Z24-2] | 5 | 4.7 | – | 63.1

More lines, main results first:

Row | IC50 (BTK) [nM] | IC50 (BTK (C481S)) [nM] | Structure (SMILES) | IC50 (TMD-8 cells; Homo sapiens, TMD8, 72 h) [nM] | IC50 (TMD-8 cells) [nM]
14 | 14.9 | 11.4 | COC[C@]1(C)Nc2c(cnc3[nH]cc(C(=O)c4ccc(Oc5cc(Cl)cc(C)n5)cc4Cl)c23)NC1=O [Z134, (S)-9-(2-chloro-4-((4-chloro-6-methylpyridin-2-yl)oxy)benzoyl)-2-(methoxymethyl)-2-methyl-1,2,4,7-tetrahydro-3H-pyrrolo[3′,2′:5,6]pyrido[3,4-b]pyrazin-3-one] | 256 | –
15 | 26.5 | 18.2 | COC[C@]1(C)Nc2c(cnc3[nH]cc(C(=O)c4ccc(Oc5ncccc5C)cc4Cl)c23)NC1=O [Z140, (S)-9-(2-chloro-4-((3-methylpyridin-2-yl)oxy)benzoyl)-2-(methoxymethyl)-2-methyl-1,2,4,7-tetrahydro-3H-pyrrolo[3′,2′:5,6]pyrido[3,4-b]pyrazin-3-one] | 158 | –
16 | 19.3 | 14.1 | CN1CCC2(C1)Nc1c(cnc3[nH]cc(C(=O)c4ccc(Oc5ccccc5F)cc4Cl)c13)NC2=O (stereo not drawn) [Z6] | – | 151
17 | 40 | 18.3 | CCOCC1(C)Nc2c(cnc3[nH]cc(C(=O)c4ccc(Oc5ccccc5)cc4Cl)c23)NC1=O (stereo not drawn) [Z67, 9-(2-chloro-4-phenoxybenzoyl)-2-(ethoxymethyl)-2-methyl-1,2,4,7-tetrahydro-3H-pyrrolo[3′,2′:5,6]pyrido[3,4-b]pyrazin-3-one] | 262 | –
18 | 11.1 | 19.8 | COC[C@]1(C)Nc2c(cnc3[nH]cc(C(=O)c4ccc(Oc5ncccc5Cl)cc4Cl)c23)NC1=O [Z147, (S)-9-(2-chloro-4-((3-chloropyridin-2-yl)oxy)benzoyl)-2-(methoxymethyl)-2-methyl-1,2,4,7-tetrahydro-3H-pyrrolo[3′,2′:5,6]pyrido[3,4-b]pyrazin-3-one] | 279 | –
19 | 5.7 | 13.4 | COC1CCC2(C1)Nc1c(cnc3[nH]cc(C(=O)c4ccc(Oc5cc(C)ccn5)cc4Cl)c13)NC2=O (stereo not drawn) [Z126, 9′-(2-chloro-4-((4-methylpyridin-2-yl)oxy)benzoyl)-3-methoxy-4′,7′-dihydrospiro[cyclopentane-1,2′-pyrrolo[3′,2′:5,6]pyrido[3,4-b]pyrazin]-3′(1′H)-one] | 183 | –
20 | 6 | 4.9 | COC1CCC2(C1)Nc1c(cnc3[nH]cc(C(=O)c4ccc(Oc5ccccc5)cc4Cl)c13)NC2=O (stereo not drawn) [Z25, 9′-(2-chloro-4-phenoxybenzoyl)-3-methoxy-4′,7′-dihydrospiro[cyclopentane-1,2′-pyrrolo[3′,2′:5,6]pyrido[3,4-b]pyrazin]-3′(1′H)-one] | 130 | –
21 | 36.5 | 39.6 | CN1C(=O)C(C)(CO)Nc2c1cnc1[nH]cc(C(=O)c3ccc(Oc4ccccc4)cc3Cl)c21 (stereo not drawn) [Z51, 9-(2-chloro-4-phenoxybenzoyl)-2-(hydroxymethyl)-2,4-dimethyl-1,2,4,7-tetrahydro-3H-pyrrolo[3′,2′:5,6]pyrido[3,4-b]pyrazin-3-one] | 259 | –
22 | 16.4 | 9.3 | [2H]C([2H])([2H])OCC1(C)Nc2c(cnc3[nH]cc(C(=O)c4ccc(Oc5ccccc5)cc4Cl)c23)NC1=O (stereo not drawn) [Z66, 9-(2-chloro-4-phenoxybenzoyl)-2-((methoxy-d3)methyl)-2-methyl-1,2,4,7-tetrahydro-3H-pyrrolo[3′,2′:5,6]pyrido[3,4-b]pyrazin-3-one] | 146 | –
23 | 34 | 59.4 | COC[C@]1(C)Nc2c(cnc3[nH]cc(C(=O)c4ccc(Oc5cccc(OC)c5)cc4Cl)c23)NC1=O [Z166, (S)-9-(2-chloro-4-(3-methoxyphenoxy)benzoyl)-2-(methoxymethyl)-2-methyl-1,2,4,7-tetrahydro-3H-pyrrolo[3′,2′:5,6]pyrido[3,4-b]pyrazin-3-one] | 245 | –
24 | 36.2 | 42.3 | [2H]C([2H])([2H])Oc1c(F)cccc1Oc1ccc(C(=O)c2c[nH]c3ncc4c(c23)N[C@@](C)(COC)C(=O)N4)c(Cl)c1 [Z178, (S)-9-(2-chloro-4-(3-fluoro-2-(methoxy-d3)phenoxy)benzoyl)-2-(methoxymethyl)-2-methyl-1,2,4,7-tetrahydro-3H-pyrrolo[3′,2′:5,6]pyrido[3,4-b]pyrazin-3-one] | 257 | –
25 | 22.8 | 14.5 | COCC1(C)Nc2c(cnc3[nH]cc(C(=O)c4ccc(Oc5cc(C6CC6)ccn5)cc4Cl)c23)NC1=O (stereo not drawn) [Z73, 9-(2-chloro-4-((4-cyclopropylpyridin-2-yl)oxy)benzoyl)-2-(methoxymethyl)-2-methyl-4,7-dihydro-1H-pyrrolo[3′,2′:5,6]pyrido[3,4-b]pyrazin-3(2H)-one] | 209 | –
26 | 15.2 | 10.8 | COC[C@]1(C)Nc2c(cnc3[nH]cc(C(=O)c4ccc(Oc5cccc(F)c5)cc4Cl)c23)NC1=O [Z157, (S)-9-(2-chloro-4-(3-fluorophenoxy)benzoyl)-2-(methoxymethyl)-2-methyl-1,2,4,7-tetrahydro-3H-pyrrolo[3′,2′:5,6]pyrido[3,4-b]pyrazin-3-one] | 145 | –
